Reference: patent publication US9572786B2, “Use of capsiate or dihydrocapsidate” (Catholic University Industry Academy Cooperation Foundation, priority 2007, dated 2017)

Legend:
NF-κB = test: UV-induced NF-κB activation, immunohistochemical staining; assay type: cell-based, human; details: HaCaT cells; 25 μM; UV 100 J/m^2; 4 hours
Method: In order to investigate whether the transcription factor NF-κB is activated, the human keratinocyte cell line HaCaT cells were stained by immunohistochemical staining as follows.
The cells were placed on a 14 mm culture slide and cultured for 24 hours in DMEM containing 10% FBS. Subsequently, the cells were cultured for 24 hours in DMEM containing 1% FBS until starvation. Then, after treating with 25 μM capsiate for 30 minutes, followed by washing 3 times with PBS, UV was irradiated at an intensity of 100 J/m^2. Immediately after the UV irradiation, the cells were washed again with PBS and further cultured for 4 hours in DMEM containing 1% FBS, which was treated with capsiate at the same concentration as in the pre-treatment. The cells were fixed for 5 minutes using methanol for immunohistochemical staining.
The fixed cells were blocked using 10% normal goat serum and washed 3 times with PBS. After fluorescence staining NF-κB using rabbit anti-NF-κB antibody (Santa Cruz, USA) and Alexa 488-labeled anti-rabbit IgG secondary antibody (Invitrogen, USA), counter staining was carried out using Hoechst (Sigma, St. Louis, Mo.).

ERK = test: MAPK signaling after UV, Western blotting: ERK; assay type: cell-based, human; details: HaCaT cells; 10, 25, 50 μM; 30 minutes after UV irradiation
Method: (§1) Western blotting was performed in the same manner as in Example 2-1 in order to identify the factor that affects the COX-2 expression regulated by capsiate, except for treating the cells with capsiate at different concentrations (10 μM, 25 μM and 50 μM) prior to UV irradiation, and using rabbit anti-ERK antibody, rabbit anti-p-ERK antibody, rabbit anti-p38 antibody, rabbit anti-p-p38 antibody, rabbit anti-JNK antibody and rabbit anti-p-JNK antibody (cell signaling), and anti-rabbit IgG-HRP conjugation antibody (Zymed) as the secondary antibody, 30 minutes after UV irradiation.

p38 = test: MAPK signaling after UV, Western blotting: p38; assay type: cell-based, human; details: HaCaT cells; 10, 25, 50 μM; 30 minutes after UV irradiation
Method: as §1

IL-2 = test: Secretion of IL-2 by T cells, ELISA; assay type: cell-based, C57/BL6 mouse; details: mouse spleen T cells of Example 14-1; vs control group
Description: In order to investigate the effect of capsiate on activation of T cells, the production of IL-2 by the T cells the proliferation of which was induced in Example 14-1 was compared with the non-capsiate-treated control group. IL-2 is a T cell proliferation factor secreted from stimulated T cells and acts as a cytokine affecting the proliferation of T helper cells, cytotoxic T (TC) cells and natural killer (NK) cells, activation of T cells, proliferation of B cells, and production of antibody.
Specifically, the degree of IL-2 production was measured by ELISA. IL-2 recognition antibody was attached on a 96-well plate. Next day, after suppressing non-specific recognition using blocking buffer (PBS containing 5% BSA), cultured T cells were added to the plate and incubated at room temperature for 4 hours. Subsequently, after incubating using biotinylated IL-2 secondary antibody (Becton Dikinson, USA), absorbance (540 nm) was measured using an ELISA reader using biotin-recognizing enzyme antibody (streptavidine-conjugated HRP, Becton Dikinson, USA), while varying the substrate.

T cells = test: Proliferation of T cells, thymidine (H3) incorporation; assay type: cell-based, C57/BL6 mouse; details: mouse spleen T cells; 25 uM; vs control group
Method: T cells were isolated from mouse spleen in order to investigate the effect of capsiate on the proliferation of T cells. Specifically, the spleen of C57/BL6 mouse was taken out and pulverized as single cells. After lysing red blood cells using an RBC lysis buffer (Sigma, USA), other cells were washed 3 times using cell culture medium (RPMI 1640 complete medium). The cell culture medium is prepared by adding 10% FBS, 10 mM HEPES, 100 μg/mL penicillin, 100 μg/mL streptomycin, 2 mM L-glutamine, 1 mM sodium pyruvate and 50 uM 2-mercaptoethanol. From the cells, only the T cells were separated using a T cell enrichment column (R&D, USA).
5×10^5 of the isolated T cells were placed on a 96-well plate and capsiate was treated at a concentration of 25 uM. Proliferation of T cells was induced by adding 0.1 μg/mL α-CD3a and 2 μg/mL α-CD28, or 1 μg/mL α-CD3a and 2 μg/mL α-CD28. The degree of cell proliferation was compared to that of the control group which was not treated with capsiate. Specifically, after culturing the T cells for 24 hours, thymidine (H3) was added at a concentration of 1 uCi per well and the T cells were harvested 16 hours later using a membrane filter (Skatron, England) and a cell harvester. The harvested T cells were lysed in LSC cocktail solution (Ultima Gold, PerkinElmer, USA) and H3's CPM value was measured using a beta counter (Packard, USA).

Sprague dawley (SD) rats = test: Retinal vascular permeability in streptozotocin induced diabetic retinopathy; assay type: in vivo, rat; details: intravitreally injected 1-week after streptozotocin, observed at 3 weeks with dextran FITC
Method: Diabetes are induced by performing intraperitoneal injection of 60 mg/kg of streptozotocin (Sigma, St Louis, Mo., USA) into 8-week-old male Sprague dawley (SD) rats (250 g). 3 days later, serum glucose level was measured and rats having serum glucose level of […] and more are selected and used in experiments. Capsiate or capsaicin was intravitreally injected 1-week after the injection of streptozotocin, respectively. 3 weeks after the injection of streptozotocin, 0.5 ml of dextran FITC (25 mg/ml, MW 40K, Sigma, St Louis, Mo., USA) was injected through tail vein of tested rats to imaging retinal vascular pattern. Retinal tissues of the rats are isolated and observed by fluorescent microscopy (Olympus, Tokyo, Japan). The increase of retinal vascular permeability is observed in nonproliferative diabetic retinopathy, proliferative diabetic retinopathy and diabetic macular edema and result from cracks in vascular vessel due to breakdown of blood-retinal barrier (BRB).

hairless mouse (SKH-1) = test: UV-induced skin damage in hairless mouse (observation, hematoxylin-eosin staining); assay type: in vivo; details: 200 μL of 1 mM in acetone topically every 24 hours, UV 2.5 kJ/m^2 4 times
Method: In order to confirm the in vitro experiment result performed on the human keratinocyte HaCaT cells in an animal model, experiment was carried out as follows using hairless mouse (SKH-1). Test groups were as follows: non-treated group—treated with acetone only without UV irradiation; test group A—treated with 200 μL of 1 mM capsiate dissolved in acetone every 24 hours without UV irradiation; control group—treated with UV and acetone; test group B—treated with UV and 200 μL of 1 mM capsiate dissolved in acetone every 24 hours (Unspecified conditions are the same as in Examples 5-7.).
Capsiate was applied on the back of the mouse. 1 hour later, UV was irradiated at an intensity of 2.5 kJ/m^2. 1 hour later, capsiate was applied again at the same concentration in order to prevent rash which may occur immediately after UV irradiation. Thereafter, capsiate was applied every 24 hours and UV irradiation was carried out every other day at an intensity of 2.5 kJ/m^2 for 4 times. In order to investigate the change of tissue and intracellular mechanism (signaling), the mouse was euthanized 1 hour after the final UV irradiation. Skin tissue was taken from the back of the mouse and subjected to skin biopsy following observation.
Hematoxylin-eosin staining was carried out in order to investigate the overall change in the skin tissue.

COc1cc(COC(=O)CCCC/C=C/C(C)C)ccc1O [capsiate]
UV-induced migration of NF-κB into the nuclei (NF-κB): inhibits | phosphorylation of ERK (ERK): inhibited | p38 (phosphorylation) (p38): no particular change | IL-2 production by T cells (IL-2): significantly decreased | proliferation of T cells induced by α-CD3a and α-CD28 (T cells): significant inhibition | increment of retinal vascular permeability (Sprague dawley (SD) rats): inhibited | blood vessels and edema (hematoxylin-eosin staining) (hairless mouse (SKH-1)): also decreased | hyperplasia in the epidermis (hematoxylin-eosin staining) (hairless mouse (SKH-1)): decreased remarkably | blood vessel thickness and blood in back skin tissue (hairless mouse (SKH-1); vs UV control): less blood vessel thickness and less blood | size and depth of wound induced by UV irradiation (hairless mouse (SKH-1); vs UV control): less severe
